Values quoted from earlier work as cited in US20160378910A1, “MOLECULAR ACTIVE CENTER IDENTIFICATION USING TUNNELING BARRIERS AND/OR ASSOCIATED MEASUREMENTS FOR SUB-MOLECULAR QSAR” (Florida Institute of Technology, Inc., priority 2015, published 2016).

System: W-2 strain of P. falciparum
Conditions: W-2 strain of malaria (P. falciparum); rank among the twelve tryptanthrin analogs in the α3* lobe QSAR plot (FIG. 13)

- IC50: highest
SMILES: O=C1c2cc(I)ccc2-n2c1nc1c(O)nc(O)nc1c2=O [1,3-diaza-2,4-hydroxy-8-iodotryptanthrin]
